Measured values: a compilation of properties of binary mixtures (doi:10.1016/j.jct.2017.01.014)

Assay: xn = mol fraction of the nth substance listed
Details: 100 kPa

C=CN1CCCC1=O + CCCC[n+]1ccn(C)c1.O=S(=O)([N-]S(=O)(=O)C(F)(F)F)C(F)(F)F
speed of sound [m/s]
Details	x1 = 0.1377	x1 = 0.2099	x1 = 0.3148	x1 = 0.4117	x1 = 0.5061	x1 = 0.6078	x1 = 0.7032	x1 = 0.79	x1 = 0.8989	x1 = 1
298.15 K	1241.2	1249.4	1263	1278.3	1296.5	1321.4	1350.7	1384.6	1442.2	–
303.15 K	1229.8	1237.8	1251.1	1266.1	1283.9	1308.1	1336.6	1369.6	1425.6	1502.5
308.15 K	1218.5	–	–	1253.8	1271.2	1294.7	1322.7	1354.8	1409.1	1483.7
313.15 K	1207.3	–	1227.5	1241.7	–	1281.5	1308.7	1340	1392.8	1465
318.15 K	–	1203.6	–	1229.7	1246.1	1268.4	1294.9	1325.3	1376.5	–
323.15 K	1185.3	–	–	1217.8	1233.8	1255.4	1281.1	1310.5	1360.3	1428.1

CCCC[n+]1ccn(C)c1.O=S(=O)([N-]S(=O)(=O)C(F)(F)F)C(F)(F)F + C=CN1CCCC1=O
x2 = 0
Details	speed of sound [m/s]
298.15 K	1227.9
303.15 K	1216.8
308.15 K	1205.8
313.15 K	1195
318.15 K	1184.2
323.15 K	1173.6
